Test results reported in US5169863A, “Hypersphyxia-causing methods” (K.K. Ueno Seiyaku Oyo Kenkyujo, priority 1988, dated 1992).

How the values were obtained:
[1] = changing rate of blood pressure and heart rate by intravenous injection in anesthetized rats; assay type: in vivo, Wister male rats; conditions: for change in vivo at 1 mg/kg: Rattus norvegicus; for changing rate (%) of blood pressure / changing rate (%) of heart rate: Table 2
Method: (blood pressure, heart rate increasing action by intravenous injection) Wister male rats (8 weeks old) were used as test animals. The rats were applied to anesthesia by intraperitoneal administration with 1.25 g/kg of urethane. The blood pressure was determined by inserting a polyethylene tube into a femoral artery, which was connected with a pressure transducer. The heart rate was determined from R wave of electrocardiograms (ECG) induced by standard limb lead II with a tachometer. Each test compound was dissolved in ethanol and intravenously administered to rats in 1 mg/kg diluted with Ringer's solution just before use. The maximum concentration of ethanol was 2 percent. An ethanol-containing Ringer without any test compound was used as a control to confirm the influence of the ethanol in each experiment. Each changing rate (%) in the blood pressure and heart rate before and after administration was determined, and the average of 3-4 experiments was shown in Table 1. Changing rates of blood pressure and heart rate were determined in the same manner as described in Example 1 except that the test compounds 60, 61 and 62 were used in different concentrations instead of the test compounds 1-55.

[2] = progressing a breath (change rate of breath rate); assay type: in vivo, Wister male rats; conditions: Rattus norvegicus, iv, tail vein, rats
Method: Wister male rats (8 weeks old) were applied to anesthesia by intraperitoneal administration with 1.25 g/kg of urethane. A pick-up for breath was fixed on a top of a rat's nose, and the breath curve was recorded on a polygraph while the breath rate was counted with a tachometer.
Each test compound was dissolved in ethanol and administered to rats through a tale vein in 1 mg/kg as diluted with Ringer's solution just before use. The maximum concentration of ethanol was 2 percent. Ringers solution containing ethanol but not containing test compound was administered at every experiment as a control. The change rates (%) of the breath rate before and after administration were determined, and evaluated as progressing activity of breath.

[3] = Table 1, read-out: changing rate of blood pressure
[4] = Table 1, read-out: changing rate of heart rate

SMILES: CCCCCC(=O)CC[C@H]1[C@H](O)CC(=O)[C@@H]1CC(=O)CCCCC(=O)OCC (relative stereo) [Compound 8, (±) 13,14-dihydro-6,15-diketo-PGE1 ethyl ester]
- change in vivo at 1 mg/kg [1, 3]: 8%
- change in vivo at 1 mg/kg [2]: 65%

SMILES: CCCCCC(=O)CC[C@H]1[C@H](O)CC(=O)[C@@H]1CCCCCCC(=O)O [Compound 1, 13,14-dihydro-15-keto-PGE1, reference compound]
- change in vivo at 1 mg/kg [1, 3]: -6%
- change in vivo at 1 mg/kg [1, 4]: 6%
- change in vivo at 1 mg/kg [2]: 34%

SMILES: CCCCCC(=O)CC[C@H]1[C@H](O)CC(=O)[C@@H]1CCCCC=CC(=O)OC [Compound 3, 13,14-dihydro-15-keto-Δ^2 -PGE1 methyl ester]
- change in vivo at 1 mg/kg [1, 3]: 32%
- change in vivo at 1 mg/kg [1, 4]: 43%

SMILES: CCCCCCCC(=O)CC[C@H]1[C@H](O)CC(=O)[C@@H]1CCCCCCC(=O)OC [Compound 4, 13,14-dihydro-15-keto-20-ethyl-PGE1 methy ester]
- change in vivo at 1 mg/kg [1, 3]: 6%
- change in vivo at 1 mg/kg [1, 4]: 33%
- change in vivo at 1 mg/kg [2]: 48%

SMILES: CCCCCC(=O)CC[C@H]1[C@H](O)CC(=O)[C@@H]1CC(=O)CCCCC(=O)O [Compound 5, 13,14-dihydro-6,15-diketo-PGE1, reference compound]
- change in vivo at 1 mg/kg [1, 3]: -4%
- change in vivo at 1 mg/kg [1, 4]: 0%
- change in vivo at 1 mg/kg [2]: 4%

SMILES: CCCCCC(=O)CC[C@H]1[C@H](O)CC(=O)[C@@H]1CC(=O)CCCCC(=O)OC [Compound 6, 13,14-dihydro-6,15-diketo-PGE1 methyl ester]
- change in vivo at 1 mg/kg [1, 3]: 3%
- change in vivo at 1 mg/kg [1, 4]: 9%
- change in vivo at 1 mg/kg [2]: 21%

SMILES: CCCCCC(=O)CC[C@H]1[C@H](O)CC(=O)[C@@H]1CC(=O)CCCCC(=O)OCCCC [Compound 9, 13,14-dihydro-6,15-diketo-PGE1 n-butyl ester]
- change in vivo at 1 mg/kg [1, 3]: 2%
- change in vivo at 1 mg/kg [1, 4]: 26%
- change in vivo at 1 mg/kg [2]: 26%

SMILES: CCCCC(C)C(=O)CC[C@H]1[C@H](O)CC(=O)[C@@H]1CC(=O)CCCCC(=O)OC (stereo partly drawn) [Compound 10, 13,14-dihydro-6,15-diketo-16R,S-methyl-PGE1 methyl ester]
- change in vivo at 1 mg/kg [1, 3]: 22%
- change in vivo at 1 mg/kg [1, 4]: 37%
- change in vivo at 1 mg/kg [2]: 63%

SMILES: CCCCC(C)C(=O)CC[C@H]1[C@H](O)CC(=O)[C@@H]1CC(=O)CCCCC(=O)OCC (stereo partly drawn) [Compound 11, 13,14-dihydro-6,15-diketo-16R,S-methyl-PGE1 ethyl ester]
- change in vivo at 1 mg/kg [1, 3]: 23%
- change in vivo at 1 mg/kg [1, 4]: 18%
- change in vivo at 1 mg/kg [2]: 34%

SMILES: CCCCC(C)(C)C(=O)CC[C@H]1[C@H](O)CC(=O)[C@@H]1CC(=O)CCCCC(=O)OCC [Compound 12, 13,14-dihydro-6,15-diketo-16,16-dimethyl-PGE1 ethyl ester]
- change in vivo at 1 mg/kg [1, 3]: 17%
- change in vivo at 1 mg/kg [1, 4]: 38%
- change in vivo at 1 mg/kg [2]: 44%

SMILES: CCCCC(F)C(=O)CC[C@H]1[C@H](O)CC(=O)[C@@H]1CC(=O)CCCCC(=O)OCC (stereo partly drawn) [Compound 13, 13,14-dihydro-6,15-diketo-16R,S-fluoro-PGE1 ethyl ester]
- change in vivo at 1 mg/kg [1, 3]: 11%
- change in vivo at 1 mg/kg [1, 4]: 20%
- change in vivo at 1 mg/kg [2]: 53%

SMILES: COC(=O)CCCCC(=O)C[C@H]1C(=O)C[C@@H](O)[C@@H]1CCC(=O)CCCC(C)C [Compound 14, 13,14-dihydro-6,15-diketo-19-methyl-PGE1 methyl ester]
- change in vivo at 1 mg/kg [1, 3]: 12%
- change in vivo at 1 mg/kg [1, 4]: 22%
- change in vivo at 1 mg/kg [2]: 33%

SMILES: COC(=O)CCCCC(=O)C[C@H]1C(=O)C[C@@H](CO)[C@@H]1CCC(=O)CCCC(C)C [Compound 16, 13,14-dihydro-6,15-diketo-11-dehydroxy-11R-hydroxymethyl-19-methyl-PGE1 methyl ester]
- change in vivo at 1 mg/kg [1, 3]: 26%
- change in vivo at 1 mg/kg [1, 4]: 25%

SMILES: CCCCCC(=O)CC[C@H]1[C@H](C)CC(=O)[C@@H]1CC(=O)CCCCC(=O)OC [Compound 17, 13,14-dihydro-6,15-diketo-11-dehydroxy-11R-methyl-PGE1 methyl ester]
- change in vivo at 1 mg/kg [1, 3]: 46%
- change in vivo at 1 mg/kg [1, 4]: 58%

SMILES: CCCCC(F)C(=O)CC[C@H]1[C@H](C)CC(=O)[C@@H]1CC(=O)CCCCC(=O)OCC (stereo partly drawn) [Compound 19, 13,14-dihydro-6,15-diketo-16R,S-fluoro-11R-dehydroxy-11R-methyl-PGE1 ethyl ester]
- change in vivo at 1 mg/kg [1, 3]: 45%
- change in vivo at 1 mg/kg [1, 4]: 51%

SMILES: CCCCCC(F)C(=O)CC[C@H]1[C@H](O)CC(=O)[C@@H]1C/C=C\CCCC(=O)OC (stereo partly drawn) [Compound 39, 13,14-dihydro-15-keto-16R,S-fluoro-20-methylPGE2 methyl ester]
- change in vivo at 1 mg/kg [1, 3]: 20%
- change in vivo at 1 mg/kg [1, 4]: 47%

SMILES: COCCCCC(C)(C)C(=O)CC[C@H]1[C@H](O)CC(=O)[C@@H]1C/C=C\CCCC(=O)OC [Compound 48, 13,14-dihydro-15-keto-16,16-dimethyl-20-methoxy-PGE2 methyl ester]
- change in vivo at 1 mg/kg [1, 3]: 15%
- change in vivo at 1 mg/kg [1, 4]: 30%

SMILES: CCCCCCCC(=O)CC[C@H]1[C@H](O)CC(=O)[C@@H]1C/C=C\CCCC(=O)OCC [Compound 52, 13,14-dihydro-15-keto-20-ethyl-PGE2 ethyl ester]
- change in vivo at 1 mg/kg [1, 3]: 13%
- change in vivo at 1 mg/kg [1, 4]: 0%

SMILES: CCCCCCCC(=O)CC[C@H]1[C@H](C)CC(=O)[C@@H]1C/C=C\CCCC(=O)OC [Compound 53, 13,14-dihydro-15-keto-20-ethyl-11-dehydroxy-11R-methyl-PGE2 methyl ester]
- change in vivo at 1 mg/kg [1, 3]: 17%
- change in vivo at 1 mg/kg [1, 4]: 20%

SMILES: CCCCCCCCC(=O)CC[C@H]1[C@H](O)CC(=O)[C@@H]1C/C=C\CCCC(=O)OC [Compound 54, 13,14-dihydro-15-keto-20-n-propyl-PGE2 methyl ester]
- change in vivo at 1 mg/kg [1, 3]: 18%
- change in vivo at 1 mg/kg [1, 4]: 18%

SMILES: CCCCC(F)C(=O)/C=C/[C@H]1[C@H](O)CC(=O)[C@@H]1C/C=C\CCCC(=O)OC (stereo partly drawn) [Compound 55, 15-keto-16R,S-fluoro-PGE2 methyl ester]
- change in vivo at 1 mg/kg [1, 3]: 31%
- change in vivo at 1 mg/kg [1, 4]: 58%

SMILES: CCCCC[C@H](O)/C=C/[C@H]1[C@H](O)CC(=O)[C@@H]1CCCCCCC(=O)O [Compound 56, PGE1, reference compound]
- change in vivo at 1 mg/kg [1, 3]: -54%
- change in vivo at 1 mg/kg [1, 4]: 10%

SMILES: CCCCCCC(=O)CC[C@H]1[C@H](O)CC(=O)[C@@H]1CCCCCCC(=O)OC [Compound 60, 13,14-dihydro-15-keto-20-methyl-PGE1 methyl ester]
- changing rate (%) of blood pressure ([1]; 0.1 mg/kg): +17%
- changing rate (%) of heart rate ([1]; 0.1 mg/kg): +14%
- changing rate (%) of blood pressure ([1]; 1 mg/kg): +13%
- changing rate (%) of heart rate ([1]; 1 mg/kg): +38%

SMILES: CCCCC(F)(F)C(=O)CC[C@H]1[C@H](O)CC(=O)[C@@H]1C/C=C\CCCC(=O)OC [Compound 61, 13,14-dihydro-15-keto-16,16-difluoro-PGE2 methyl ester]
- changing rate (%) of blood pressure ([1]; 0.01 mg/kg): +13%
- changing rate (%) of heart rate ([1]; 0.01 mg/kg): +14%
- changing rate (%) of blood pressure ([1]; 0.1 mg/kg): +15%
- changing rate (%) of heart rate ([1]; 0.1 mg/kg): +30%
- changing rate (%) of blood pressure ([1]; 1 mg/kg): +27%
- changing rate (%) of heart rate ([1]; 1 mg/kg): +26%

SMILES: CCOC(=O)CCCCC(=O)C[C@H]1C(=O)C[C@@H](O)[C@@H]1CCC(=O)CCC(C)CC (stereo partly drawn) [Compound 62, 13,14-dihydro-6,15-diketo-18-methyl-PGE1 ethyl ester]
- changing rate (%) of heart rate ([1]; 0.1 mg/kg): +6%
- changing rate (%) of heart rate ([1]; 1 mg/kg): +13%
